{"source": "paper PMC7002685", "about": "“Inhibition of vascular calcification by inositol phosphates derivatized with ethylene glycol oligomers” (Nature Communications, 2020)", "key": {"[1]": {"assay": "Inhibition of calcium phosphate precipitation in serum-free buffer", "format": "physicochemical", "conditions": "for inhibition of calcium phosphate precipitation, serum-free: 10 mM calcium, 6 mM phosphate, HBS pH 7.4, 90 min, 37 °C", "description": "calcification in organs other than these are available from the present study.\nWe have included the latest research on CPPs and the respective literature now in the introduction (p. 4, line 74 ff.).\nThe way I see it the compound stabilizes CPP1, which can be more easily cleared unless it occurs in very high amounts and cannot be cleared at all. Therefore it is important to measure renal mineral clearance ± compound (see comment for Fig 3)\nWe have amended the discussion in the revised manuscript with respect to the hypothesis on the mechanism of action of (OEG2)2-IP4 postulated by the reviewer. (p. 32, line 614 ff.). We have further addressed the mechanism of action in response to Reviewer #4 Comment 3.\nDid they test if (OEG2)2-IP4 compound alone stabilized supersaturated Ca and Pi solutions by forming colloids akin to CPP? […]\nand phosphate and formation of hydroxyapatite with the assay from Heiss, A. et al.5. In brief, compound, 10 mM calcium solution and 6 mM phosphate solution in Hepes buffered saline (pH 7.4, RT) were incubated for 90 min at 37 °C and centrifuged at 8 000 x g for 5 min. The recovered pellet was dissolved in 1% (v/v) acetic acid and the calcium content quantified […]. (OEG2)2-IP4 alone stabilized supersaturated calcium and phosphate in […]\nCPP1s (Rh < 100 nm) were detected by dynamic light scattering. […]\nsynergistic effect of (OEG2)2-IP4 with endogenous calcification inhibitors, such as fetuin-A in […]\nthat are not physiological (no serum), we prefer not to include these additional data in the […]"}, "primary human VSMCs": {"system": "primary human VSMCs", "assay": "CPP1-induced VSMC calcium deposition", "format": "cell-based", "conditions": "for VSMC calcium deposition (CPP2 = 100): CPP1 50 µg Ca/mL", "method": "Calcium deposition on cell monolayers was assessed qualitatively by staining for calcium with 2% w/v Alizarin Red S aqueous solution (pH 4.2) (05600, Fluka Analytical). Cell monolayers in 24-well plates were washed with PBS (10010015, Thermo Fischer), fixed in 10% v/v NBF in PBS (F8775, Sigma-Aldrich) for 45 min at RT, washed with milli-Q water, incubated for 3 min with 300 µL Alizarin Red S solution, washed with milli-Q, and images were acquired using a Axiovert 35 microscope (Zeiss, Carl Zeiss Microscopy GmbH, Jena, Germany) at ×100 magnification. Calcium quantitation was performed after washing cells with PBS and then decalcifying cell monolayers with 0.1 M HCl overnight at 4 °C. Acidic supernatants were centrifuged (10,000 × g, 4 °C, 10 min) and calcium content was assessed using the calcium colorimetric assay."}, "[2]": {"system": "transformation of CPP1 to CPP2 in pooled human serum", "assay": "In vitro serum calcification propensity (T50) screening assay", "format": "biochemical", "design": "key to T50: T50 in minutes (time to 50% CPP phase transition)", "conditions": "for activity/unit mass: mean c350 x mw (Na salt); for concentration upon which a T50 of 350 min is reached (c350), mean: mean of n experiments"}, "[3]": {"conditions": "3 µM, individual experiments, Fig. 2a"}, "[4]": {"conditions": "10 µM, individual experiments, Fig. 2a"}}, "note": "Values joined by “and” are separate entries in the source; they are usually repeats but may differ in a detail not shown here. Identical values can stand only once.", "data": [{"smiles": "O=P(O)(O)O[C@H]1[C@H](OP(=O)(O)O)[C@@H](OP(=O)(O)O)[C@H](OP(=O)(O)O)[C@@H](OP(=O)(O)O)[C@H]1OP(=O)(O)O", "note": "[IP6, myo-Inositol hexakisphosphate]", "values": [{"measurement": "inhibition of calcium phosphate precipitation, serum-free", "setting": "[1]", "result": "barely effective"}, {"measurement": "VSMC calcium deposition (CPP2 = 100)", "setting": "primary human VSMCs; 3 µM", "result": "82.15% and 53.35% and 45.33%"}, {"measurement": "VSMC calcium deposition (CPP2 = 100)", "setting": "primary human VSMCs; 100 µM", "result": "138.44% and 188.13% and 99%"}, {"measurement": "T50", "setting": "[2]; [3]", "result": "234.667 min and 274 min and 233.967 min and 253.933 min and 243.267 min and 241.767 min and 246.2 min and 235.9 min and 228.633 min and 203.267 min and 288.2 min and 222.867 min and 230.267 min and 213.667 min and 216.7 min and 265.633 min and 255.267 min"}, {"measurement": "T50", "setting": "[2]; 4.1 µM, individual experiments, Fig. 2a", "result": "217.4 min and 239.4 min and 277.7 min and 241.067 min"}, {"measurement": "T50", "setting": "[2]; 5 µM, individual experiments, Fig. 2a", "result": "249.8 min and 203.1 min and 210 min"}, {"measurement": "T50", "setting": "[2]; 8.2 µM, individual experiments, Fig. 2a", "result": 256.2, "unit": "min"}, {"measurement": "T50", "setting": "[2]; [4]", "result": "257.5 min and 310.933 min and 271.067 min and 277.3 min and 252.767 min and 292.233 min and 259.167 min and 287.2 min and 285.433 min and 258.3 min and 249.2 min and 255.267 min and 337.4 min and 269.2 min and 241.433 min and 220.9 min and 227.45 min and 265.233 min and 247.333 min and 278 min and 268.867 min"}, {"measurement": "T50", "setting": "[2]; 15 µM, individual experiments, Fig. 2a", "result": "257.433 min and 252.1 min and 309.067 min and 247.867 min"}, {"measurement": "T50", "setting": "[2]; 20 µM, individual experiments, Fig. 2a", "result": "287.15 min and 265.7 min and 269.8 min"}, {"measurement": "T50", "setting": "[2]; 30 µM, individual experiments, Fig. 2a", "result": "345.45 min and 406.133 min and 372.8 min and 351.75 min and 343.7 min and 344.2 min and 259.35 min and 335.5 min and 347.9 min and 378.6 min and 321.233 min and 338 min and 297.667 min and 289.1 min and 328.133 min and 313.633 min and 374.867 min and 311.7 min and 330.9 min and 290.033 min and 322.15 min and 364.5 min and 339.867 min"}, {"measurement": "T50", "setting": "[2]; 50 µM, individual experiments, Fig. 2a", "result": "415 min and 521.55 min and 441.5 min and 442 min and 442.167 min and 430.55 min and 469.15 min and 469.7 min and 444.5 min and 341.15 min and 548.25 min and 437.6 min and 408.433 min and 339.067 min and 334.933 min and 396.5 min and 364.133 min and 373.7 min and 353.2 min and 360.8 min and 372.45 min and 446.2 min and 371.033 min and 410.7 min"}, {"measurement": "activity/unit mass", "setting": "[2]", "result": 30.85, "unit": "mg/L"}, {"measurement": "concentration upon which a T50 of 350 min is reached (c350), mean", "setting": "[2]", "result": 35.0, "unit": "µM"}]}, {"smiles": "COCCOCCO[C@@H]1[C@@H](OP(=O)(O)O)[C@H](OCCOCCOC)[C@@H](OP(=O)(O)O)[C@@H](OP(=O)(O)O)[C@H]1OP(=O)(O)O", "note": "[(OEG2)2-IP4, 4,6-Di-O-(methoxy-diethyleneglycol)-myo-inositol-1,2,3,5-tetrakis(phosphate)]", "values": [{"measurement": "precipitate formation, serum-free", "setting": "[1]; 1 mM", "result": "no precipitate formed"}, {"measurement": "inhibition of calcium phosphate precipitation, serum-free", "setting": "[1]", "result": "stabilized supersaturated calcium and phosphate in solution dose dependently"}, {"measurement": "VSMC calcium deposition (CPP2 = 100)", "setting": "primary human VSMCs; 1 µM, replicates Fig. 3g", "result": "54.74% and 45.04% and 38.43%"}, {"measurement": "VSMC calcium deposition (CPP2 = 100)", "setting": "primary human VSMCs; 10 µM", "result": "14.07% and 5.29% and 7.26%"}, {"measurement": "VSMC calcium deposition (CPP2 = 100)", "setting": "primary human VSMCs; 30 µM", "result": "8.51% and 7.29% and 1.56%"}, {"measurement": "VSMC calcium deposition (CPP2 = 100)", "setting": "primary human VSMCs; 100 µM", "result": "1.78% and 6.75% and 5.25%"}, {"measurement": "concentration from which calcium deposition was reduced to the level of control", "setting": "primary human VSMCs; CPP1", "result": "≥ 10", "unit": "µM"}, {"measurement": "T50", "setting": "[2]; 0.3 µM, individual experiments, Fig. 2a", "result": "225.667 min and 200.6 min and 198.8 min"}, {"measurement": "T50", "setting": "[2]; 1 µM, individual experiments, Fig. 2a", "result": "245.5 min and 222.6 min and 227.433 min"}, {"measurement": "T50", "setting": "[2]; [3]", "result": "295.5 min and 257.733 min and 269.633 min"}, {"measurement": "T50", "setting": "[2]; [4]", "result": "669.833 min and 505.133 min and 608.55 min"}, {"measurement": "T50", "setting": "[2]; concentration 0.3 μM, one value per experiment", "result": "225.667 and 200.6 and 198.8"}, {"measurement": "T50", "setting": "[2]; concentration 1 μM, one value per experiment", "result": "245.5 and 222.6 and 227.433"}, {"measurement": "T50", "setting": "[2]; concentration 3 μM, one value per experiment", "result": "295.5 and 257.733 and 269.633"}, {"measurement": "T50", "setting": "[2]; concentration 10 μM, one value per experiment", "result": "669.833 and 505.133 and 608.55"}, {"measurement": "stronger inhibition than (OEG11)2-IP4, activity by unit mass", "setting": "[2]; from c350 in mg/L", "result": 32, "unit": "%"}, {"measurement": "activity/unit mass", "setting": "[2]", "result": 4.30, "unit": "mg/L"}, {"measurement": "concentration upon which a T50 of 350 min is reached (c350), mean", "setting": "[2]", "result": 4.9, "unit": "µM"}, {"measurement": "concentration upon which a T50 of 350 min is reached (c350), single experiment", "setting": "[2]; one value per experiment (lab journal reference E05-E40)", "result": "4.3 µM and 5.9 µM and 5.0 µM and 3.6 µM and 5.4 µM"}, {"measurement": "Concentration at T50 = 350 min mean ± s.d. (n) (c350)", "setting": "[2]; pooled human serum, 10 mM calcium, 6 mM phosphate, 37 °C", "result": "4.9 ± 0.8 µM and 4.3 ± 0.7 mg/L"}]}]}
